Measurements reported in US8802664B2 (Bioproject, priority 2010, dated 2014).
Where a name gives a salt, the structure may show the parent alone.

SMILES | melting point
CN1CCC(OC(c2cccc(SCCN)c2)c2nc3cc(F)ccc3[nH]2)CC1 (stereo not drawn) (as salt: oxalate) [Example 428, 2-{3-[(5-fluoro-1H-benzimidazol-2-yl)(1-methylpiperidin-4-yloxy)methyl]phenylsulfanyl}ethylamine] | 85 °C
CN1CCC(OC(c2nc3ccccc3o2)c2cc(OC(F)(F)F)ccc2F)CC1 (stereo not drawn) (as salt: oxalate) [Example 525, 2-[(2-fluoro-5-trifluoromethoxyphenyl)(1-methylpiperidin-4-yloxy)methyl]benzoxazole] | 103 °C
CN1CCC(OC(c2ccc(N)cc2)c2nc3ccccc3[nH]2)CC1 (stereo not drawn) (as salt: hydrochloride) [Example 455, 4-[(1H-benzimidazol-2-yl)(1-methylpiperidin-4-yloxy)methyl]aniline] | 185 °C
CN1CCC(OC(c2cccc(Cl)c2)c2nc3ccccc3[nH]2)CC1 (stereo not drawn) (as salt: oxalate) [Example 225, 2-[(3-chlorophenyl)(1-methylpiperidin-4-yloxy)methyl]-1H-benzimidazole] | 158 °C
CN1CCC(OC(c2cccc(SCCNC(=N)N)c2)c2nc3ccccc3s2)CC1 (stereo not drawn) (as salt: hydrochloride) [Example 302, N-(2-{3-[benzothiazol-2-yl(1-methylpiperidin-4-yloxy)methyl]phenylsulfanyl}ethyl)guanidine] | 125 °C
C=CCOc1cccc(C(NC2CCN(C)CC2)c2nc3ccccc3[nH]2)c1 (stereo not drawn) (as salt: oxalate) [Example 112, [(3-allyloxyphenyl)(1H-benzimidazol-2-yl)methyl](1-methylpiperidin-4-yl)amine] | 125 °C
CN1CCC(OC(c2cccc(Oc3cccnc3)c2)c2nc3ccccc3s2)CC1 (stereo not drawn) (as salt: oxalate) [Example 448, 2-{(1-methylpiperidin-4-yloxy)[3-(pyridin-3-yloxy)phenyl]methyl}benzothiazole] | 78 °C
CN1CCC(OC(c2nc3ccccc3s2)c2ccccc2Cl)CC1 (stereo not drawn) (as salt: oxalate) [Example 281, 2-[(2-Chlorophenyl)(1-methylpiperidin-4-yloxy)methyl]benzothiazole] | 163 °C
CN1CCC(OC(c2cccc(N3CCCC3CO)c2)c2nc3ccccc3s2)CC1 (stereo not drawn) (as salt: oxalate) [Example 324, (1-{3-[benzothiazol-2-yl(1-methylpiperidin-4-yloxy)methyl]phenyl}pyrrolidin-2-yl)methanol] | 99 °C
CC(=O)OC1CCN(c2cccc(C(OC3CCN(C)CC3)c3nc4ccccc4s3)c2)CC1 (stereo not drawn) (as salt: oxalate) [Example 413, acetic acid 1-{3-[benzothiazol-2-yl(1-methylpiperidin-4-yloxy)methyl]phenyl}piperidin-4-yl ester] | 74 °C
CN1CCC(OC(c2cccc(CCCCCNC(=N)N)c2)c2nc3ccccc3s2)CC1 (stereo not drawn) (as salt: hydrochloride) [Example 365, N-(5-{3-[benzothiazol-2-yl(1-methylpiperidin-4-yloxy)methyl]phenyl}pentyl)guanidine] | 90 °C
CSc1cccc(C(NC2CCN(C)CC2)c2nc3ccccc3s2)c1 (stereo not drawn) (as salt: oxalate) [Example 111, [benzothiazol-2-yl(3-methylsulfanylphenyl)methyl](1-methylpiperidin-4-yl)amine] | 85 °C
CN1CCC(OC(c2cccc(CCc3cn(C)cn3)c2)c2nc3ccccc3s2)CC1 (stereo not drawn) (as salt: oxalate) [Example 306, 2-[{3-[2-(1-methyl-1H-imidazol-4-yl)ethyl]phenyl}(1-methylpiperidin-4-yloxy)methyl]benzothiazole] | 80 °C
CCCCCCc1cccc(C(NC2CCN(C)CC2)c2nc3ccccc3[nH]2)c1 (stereo not drawn) (as salt: oxalate) [Example 76, [(1H-benzimidazol-2-yl)(3-hexylphenyl)methyl](1-methylpiperidin-4-yl)amine] | 115 °C
CN1CCC(OC(c2cccc(I)c2)c2nc3ccccc3n2C)CC1 (stereo not drawn) (as salt: oxalate) [Example 472, 2-[(3-iodophenyl)(1-methylpiperidin-4-yloxy)methyl]-1-methyl-1H-benzimidazole] | 76 °C
CN1CCC(OC(c2cccc(C#CCCCNC(=N)N)c2)c2nc3ccccc3s2)CC1 (stereo not drawn) (as salt: hydrochloride) [Example 340, N-(5-{3-[benzothiazol-2-yl(1-methylpiperidin-4-yloxy)methyl]phenyl}pent-4-ynyl)guanidine] | 180 °C
CN1CCC(OC(c2cccc(OCCCCCN)c2)c2nc3ccccc3s2)CC1 (stereo not drawn) (as salt: oxalate) [Example 371, 5-{3-[benzothiazol-2-yl(1-methylpiperidin-4-yloxy)methyl]phenoxy}pentylamine] | 141 °C
CN1CCC(OC(c2cccc(N3CCC(=O)C3)c2)c2nc3ccccc3s2)CC1 (stereo not drawn) (as salt: oxalate) [Example 443, 1-{3-[benzothiazol-2-yl(1-methylpiperidin-4-yloxy)methyl]phenyl}pyrrolidin-3-one] | 105 °C
CN1CCC(NC(c2cccc(SCc3ccccc3)c2)c2nc3ccccc3[nH]2)CC1 (stereo not drawn) (as salt: oxalate) [Example 104, [(1H-benzimidazol-2-yl)(3-benzylsulfanylphenyl)methyl](1-methylpiperidin-4-yl)amine] | 127 °C
CN1CCC(OC(c2cccc(CCCCNC(=N)N)c2)c2nc3ccccc3s2)CC1 (stereo not drawn) (as salt: hydrochloride) [Example 374, N-(4-{3-[benzothiazol-2-yl(1-methylpiperidin-4-yloxy)methyl]phenyl}butyl)guanidine] | 120 °C
CN1CCC(OC(c2cccc(OCc3ccco3)c2)c2nc3ccccc3s2)CC1 (stereo not drawn) (as salt: oxalate) [Example 267, 2-[[3-(furan-2-ylmethoxy)phenyl](1-methylpiperidin-4-yloxy)methyl]benzothiazole] | 85 °C
CN1CCC(OC(c2nc3ccccc3s2)c2ccc(F)cc2F)CC1 (stereo not drawn) (as salt: oxalate) [Example 12, 2-[(2,4-difluorophenyl)(1-methyl-piperidin-4-yloxy)methyl]-benzothiazole] | 182 °C
CN1CCC(OC(c2cccc(N3CCCC3CO)c2)c2nc3ccccc3s2)CC1 (stereo not drawn) (as salt: oxalate) [Example 323, (1-{3-[benzothiazol-2-yl(1-methylpiperidin-4-yloxy)methyl]phenyl}pyrrolidin-2-yl)methanol] | 76 °C
CCN1CCC(OC(c2cccc(OCCN)c2)c2nc3ccccc3s2)CC1 (stereo not drawn) (as salt: oxalate) [Example 290, 2-{3-[benzothiazol-2-yl(1-ethyl-piperidin-4-yloxy)methyl]phenoxy}ethylamine] | 112 °C
CN1CCC(OC(c2cccc(N3CC4CC(N)CC4C3)c2)c2nc3ccccc3s2)CC1 (stereo not drawn) (as salt: oxalate) [Example 471] | 126 °C
CN1CCC(OC(c2cccc(N3CCC(O)CC3)c2)c2nc3ccccc3s2)CC1 (stereo not drawn) (as salt: oxalate) [Example 411, 1-{3-[benzothiazol-2-yl(1-methylpiperidin-4-yloxy)methyl]phenyl}piperidin-4-ol] | 110 °C
COc1cccc(COc2cccc(C(NC3CCN(C)CC3)c3nc4ccccc4[nH]3)c2)c1 (stereo not drawn) (as salt: oxalate) [Example 125, {(1H-benzimidazol-2-yl)[3-(3-methoxybenzyloxy)phenyl]methyl}(1-methylpiperidin-4-yl)amine] | 135 °C
